In patent US8318757B2, “Substituted isoxazoline compound and pest control agent” (Nissan Chemical Industries, Ltd., priority 2007, dated 2012):

How the values were obtained:
Assay type in all cases: in vivo
Aculops pelekassi = experiment: whole plant or invertebrate; details: 144 h
Protocol: In a styrol cup having an inner diameter of 7 cm, a wet filtration paper was laid and on the paper, a leaf of mandarin orange cut out so as to have the same diameter as the inner diameter of the cup was laid, followed by inoculating ten larvae of Aculops pelekassi per leaf with the leaf. A 10% emulsifiable concentrate of the compound of the present invention (depending on the type of the compound, a 10% wettable powder was subjected to the test) was diluted with water containing a spreader to prepare a drug solution in a concentration of 100 ppm. The drug solution was sprayed using a rotary spray tower in an amount of 2.5 mL per styrol cup, and the cup was capped and stored in a thermostatic room of 25° C. The number of killed larvae after 6 days was measured and the mortality was calculated from the same calculation formula as that in Test Example 1. Here, the test was carried out on the duplicate samples.

Spodoptera exigua = experiment: Mortality Test for Spodoptera exigua; details: in Brassica oleracea, 144 h
Protocol: A 10% emulsifiable concentrate of the compound of the present invention (depending on the type of the compound, a 10% wettable powder was subjected to the test) was diluted with water containing a spreader to prepare a drug solution in a concentration of 100 ppm. In this drug solution, a leaf of cabbage was immersed for about 10 seconds and was air-dried and then put into a petri dish. In the petri dish, five 2 instar larvae of Spodoptera exigua per petri dish were released and the petri dish was capped and stored in a thermostatic room of 25° C. The number of killed larvae after 6 days was measured and the mortality was calculated from the same calculation formula as that in Test Example 1. Here, the test was carried out on the duplicate samples.

Cat Flea = experiment: Mortality Test for Cat Flea; details: Ctenocephalides felis, 96 h
Protocol: To the bottom surface and the side surface of a petri dish having an inner diameter of 5.3 cm, 400 μL of an acetone solution in which 4 mg of the compound of the present invention was dissolved in 40 mL of acetone (concentration: 100 ppm) was applied and then acetone was volatilized to form a thin film of the compound of the present invention on the inner wall of the petri dish. […] In the petri dish, ten Ctenocephalides felis imagines (male and female were mixed) were released and the petri dish was capped and stored in a thermostat room of 25° C. The number of killed imagines after 4 days was measured and the mortality was calculated from the same calculation formula as that in Test Example 1. Here, the test was carried out on the single sample.

American Dog Tick = experiment: Mortality Test for American Dog Tick; details: Dermacentor variabilis, 96 h; thin film in petri dishes, applied drug 0.1 μg/cm^2; protonymphs; after 4 days
Protocol: To the bottom surface and the side surface of two petri dishes having an inner diameter of 5.3 cm, 400 μL of an acetone solution in which 4 mg of the compound of the present invention was dissolved in 40 mL of acetone (concentration: 100 ppm) was applied and then acetone was volatilized to form a thin film of the compound of the present invention on the inner wall of the petri dishes. […] In one of the petri dishes, ten American dog tick (Dermacentor variabilis) protonymphs (male and female were mixed) were released, and the petri dish was capped with the other petri dish. […] The number of killed protonymphs after 4 days was measured and the mortality was calculated from the same calculation formula as that in Test Example 1. Here, the test was carried out on the single sample.

CSC(SC)C(=O)NCc1ccc(C2=NOC(c3cc(C(F)(F)F)cc(C(F)(F)F)c3)(C(F)(F)F)C2)cc1Cl (stereo not shown) [1-206, N-[4-[5-[3,5-bis(trifluoromethyl)phenyl]-5-trifluoromethyl-4,5-dihydroisoxazole-3-yl]-2-chlorophenyl]methyl-2,2-bis(methylthio)acetamide]
≥ 80%: mortality at 100 ppm (Aculops pelekassi) | mortality at 100 ppm (Spodoptera exigua) | mortality at 1 µg/cm2 (Cat Flea) | mortality at 0.1 µg/cm2 (American Dog Tick)
